This passage reports IC50 results from US8623898B2, “Glycine transporter inhibiting substances” (Taisho Pharmaceutical Co., Ltd., priority 2009, dated 2014).

Like-named read-outs stand apart in the source and are kept apart here.

This test addresses T1, human type 1 glycine transporter (GlyT1) (Homo sapiens, UniProt P48067).
T1 construct: Used in the experiment were T98G cells (glioma cells) developing a human type 1 glycine transporter (GlyT1); endogenous in cells; host or cells: T98G human glioma cells
T1 sequence (P48067 1-706): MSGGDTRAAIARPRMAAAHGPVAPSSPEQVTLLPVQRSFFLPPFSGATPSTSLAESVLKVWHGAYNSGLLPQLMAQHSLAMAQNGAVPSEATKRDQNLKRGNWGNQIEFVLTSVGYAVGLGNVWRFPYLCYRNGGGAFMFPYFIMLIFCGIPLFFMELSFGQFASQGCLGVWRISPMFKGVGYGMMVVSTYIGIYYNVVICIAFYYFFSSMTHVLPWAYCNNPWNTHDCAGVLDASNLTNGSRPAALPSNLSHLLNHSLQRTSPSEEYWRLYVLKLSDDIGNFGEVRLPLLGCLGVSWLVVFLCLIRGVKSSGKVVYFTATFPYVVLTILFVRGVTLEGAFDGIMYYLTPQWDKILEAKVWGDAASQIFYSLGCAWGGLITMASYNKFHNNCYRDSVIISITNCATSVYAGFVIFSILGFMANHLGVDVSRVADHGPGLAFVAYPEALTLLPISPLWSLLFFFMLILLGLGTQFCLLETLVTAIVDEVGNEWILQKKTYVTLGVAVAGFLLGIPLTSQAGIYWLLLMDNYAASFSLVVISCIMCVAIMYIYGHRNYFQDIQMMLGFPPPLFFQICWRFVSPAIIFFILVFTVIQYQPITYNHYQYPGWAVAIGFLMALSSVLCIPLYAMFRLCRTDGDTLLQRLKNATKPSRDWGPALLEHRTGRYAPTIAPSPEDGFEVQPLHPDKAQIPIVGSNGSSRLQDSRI
In words: Glycine uptake inhibition experiment ([3H] glycine uptake in T98G cells). It is filed as cell-based. The following applies: [3H] glycine 250 nM, read-out: IC50 (glycine uptake inhibiting activity). The method, then: A glycine uptake inhibition experiment was conducted in accordance with the method described in Neuron, 8, 927-935, 1992. Used in the experiment were T98G cells (glioma cells) developing a human type 1 glycine transporter (GlyT1). The T98G cells were seeded in a 96-well plate at a density of 2.0×10^4 cells per well and cultured overnight in a CO2 incubator. The test substance was first dissolved in a 100% DMSO solution and then dissolved in a 10 mM HEPES buffer solution (pH 7.4) supplemented with 150 mM sodium chloride, 1 mM calcium chloride, 5 mM potassium chloride, 1 mM magnesium chloride, 10 mM glucose, and 0.2% bovine serum albumin. After removing the cell culture medium, the test substance was subjected to a 10-min pretreatment. Thereafter, the test substance and [^3H] glycine (final concentration: 250 nM) were added to the cells and reaction was performed at room temperature for 15 minutes. After the end of the reaction, the extracellular fluid was aspirated with a manifold to remove the excess marker glycine present outside of the cells; thereafter, the cells were lysed with an aqueous solution of 0.5 M sodium hydroxide. The glycine content in the cells was determined by measuring the radioactivity in the cell lysate with a liquid scintillation counter. With the amount of glycine uptake in the presence of 10 μM ALX5407 being referred to as the nonspecific uptake, the amount of specific uptake was calculated by subtracting the amount of nonspecific uptake from the total amount of uptake in the absence of 10 μM ALX5407. In addition, glycine uptake inhibiting activity (IC50) was calculated from an inhibition curve for the concentration of the test substance ranging from 10^−9 to 10^−5 M.

For `Cn1cnc(C(=O)N(CCC2CCOCC2)Cc2cccc(OC(F)(F)F)c2)c1` [Compound 1], the IC50 is below 0.1 µM. Also, the IC50 (15 min, room temperature) was 0.0195 µM.
`Cn1cc(C(=O)N(Cc2cccc(OC(F)(F)F)c2)C2CCOCC2)nc1Br` [Compound 6]: the IC50 is at least 1 µM.
As to `Cc1nc(C(=O)N(Cc2cccc(OC(F)(F)F)c2)C2CCOCC2)c[nH]1` [Compound 8], the IC50 was at least 1 µM.
`Cc1nc(C(=O)N(Cc2cccc(OC(F)(F)F)c2)C2CCOCC2)cn1C` [Compound 9]: the IC50 is at least 1 µM.
Consider `CCn1cnc(C(=O)N(Cc2cccc(OC(F)(F)F)c2)C2CCOCC2)c1` [Compound 13], for which the IC50 is below 0.1 µM. Besides, the IC50 (15 min, room temperature) is 0.0031 µM.
As to `O=C(c1cn(CC(F)(F)F)cn1)N(Cc1cccc(OC(F)(F)F)c1)C1CCOCC1` [Compound 14], the IC50 was at least 1 µM.
Same read-out and setting: to `O=C(c1nc[nH]n1)N(Cc1cccc(OC(F)(F)F)c1)C1CCOCC1` [Compound 19] belongs at least 1 µM.
`COCCn1cnc(C(=O)N(Cc2cccc(OC(F)(F)F)c2)C2CCOCC2)c1` [Compound 20]: the IC50 is at least 1 µM.
Same read-out and setting: next, `COc1cccc(CN(C(=O)c2cn(C)cn2)C2CCOCC2)c1` [Compound 23]: below 0.1 µM.
Take `Cn1cnc(C(=O)N(Cc2ccc(F)c(C(F)(F)F)c2)C2CCOCC2)c1` [Compound 25]: the IC50 was below 0.1 µM. Further, under “15 min, room temperature”, the IC50 was found to be 0.0041 µM.
For `O=C(c1nc[nH]n1)N(Cc1cccc(Cl)c1)C1CCOCC1` [Compound 28], the IC50 was at least 1 µM.
`O=C(c1nc[nH]n1)N(Cc1ccc(F)c(Cl)c1)C1CCOCC1` [Compound 29]: the IC50 was at least 1 µM.
As for `O=C(c1nc[nH]n1)N(Cc1ccc(F)c(C(F)(F)F)c1)C1CCOCC1` [Compound 30], the IC50 is at least 1 µM.
In the case of `CCn1cnc(C(=O)N(Cc2cccc(OC(F)(F)F)c2)C2CCOCC2)n1` [Compound 31], the IC50 was below 0.1 µM. Where the note is “15 min, room temperature”, the IC50 stood at 0.0106 µM.
Consider `Cn1cnc(C(=O)N(CCOc2ccc(Cl)cc2)C2CCOCC2)c1` [Compound 36], for which the IC50 is below 0.1 µM.
As to `Cn1cnc(C(=O)N(CCOc2ccc(Cl)c(Cl)c2)C2CCOCC2)c1` [Compound 39], the IC50 was below 0.1 µM.
Take `Cn1cnc(C(=O)N(Cc2cc(F)cc(C(F)(F)F)c2)C2CCOCC2)c1` [Compound 42]: the IC50 is below 0.1 µM. Further, where the note is “15 min, room temperature”, the IC50 was 0.0269 µM.
On to `Cn1cnc(C(=O)N(Cc2ccc(-c3ccccc3)cc2)C2CCOCC2)c1` [Compound 44], for which the IC50 is at least 1 µM.
For `CCn1cnc(C(=O)N(Cc2ccc(F)c(C(F)(F)F)c2)C2CCOCC2)n1` [Compound 45], the IC50 was below 0.1 µM. Moreover, the IC50 (15 min, room temperature) came out at 0.0326 µM.
`Cn1cnc(C(=O)N(CCc2ccccc2Cl)C2CCOCC2)n1` [Compound 47]: the IC50 is at least 1 µM.
Consider `Cn1cnc(C(=O)N(Cc2ccc(OC(F)(F)F)cc2)C2CCOCC2)n1` [Compound 52], for which the IC50 is at least 1 µM.
With `Cn1cnc(C(=O)N(Cc2cccc(I)c2)C2CCOCC2)n1` [Compound 53], the IC50 was below 0.1 µM. Besides, the IC50 (15 min, room temperature) was found to be 0.0382 µM.
In the same order, the values of `Cn1cnc(C(=O)N(Cc2ccc(F)c(Br)c2)C2CCOCC2)n1` [Compound 57] are below 0.1 µM and 0.0459 µM.
With `Cn1cnc(C(=O)N(Cc2cc(OC(F)(F)F)ccc2F)C2CCOCC2)n1` [Compound 63], the IC50 was at least 1 µM.
For `Cn1cnc(C(=O)N(Cc2cccc(OC(F)F)c2)C2CCOCC2)n1` [Compound 67], the IC50 is below 0.1 µM. Moreover, the IC50 (15 min, room temperature) turned out to be 0.0422 µM.
On to `Cn1cnc(C(=O)N(Cc2ccc(OC(F)F)c(OC(F)F)c2)C2CCOCC2)n1` [Compound 68], for which the IC50 was at least 1 µM.
On to `Cn1cnc(C(=O)N(Cc2ccc(Cl)c(OC(F)(F)F)c2)C2CCOCC2)n1` [Compound 69], for which the IC50 is below 0.1 µM. Moreover, the IC50 (15 min, room temperature) was 0.0298 µM.
On to `Cn1cnc(C(=O)N(Cc2cc(Cl)cc(OC(F)(F)F)c2)C2CCOCC2)n1` [Compound 73], for which the IC50 is below 0.1 µM. For the same molecule, the IC50 (15 min, room temperature) stood at 0.0189 µM.
With `O=C(c1ncn(C(F)F)n1)N(Cc1cccc(OC(F)(F)F)c1)C1CCOCC1` [Compound 75], the IC50 was at least 1 µM.
Regarding `COC(=O)c1cccc(-c2cc(CN(C(=O)c3ncn(C)n3)C3CCOCC3)ccc2F)c1` [Compound 77], the IC50 was below 0.1 µM. The IC50 (15 min, room temperature) was determined as 0.0105 µM.
As to `Cn1cnc(C(=O)N(Cc2ccc(F)c(-c3cccc(CO)c3)c2)C2CCOCC2)n1` [Compound 78], the IC50 is below 0.1 µM.
`Cn1cnc(C(=O)N(Cc2ccc(F)c(-c3ccccc3F)c2)C2CCOCC2)n1` [Compound 88]: the IC50 is below 0.1 µM. Moreover, the IC50 (15 min, room temperature) is 0.0451 µM.
On the same counts, the results for `CCCOc1cccc(-c2cc(CN(C(=O)c3ncn(C)n3)C3CCOCC3)ccc2F)c1` [Compound 93] are below 0.1 µM and 0.0418 µM.
On the same counts, the results for `Cn1cnc(C(=O)N(Cc2ccc(F)c(-c3cccc(CO)c3)c2)C2CCOCC2)c1` [Compound 94] are below 0.1 µM and 0.0076 µM.
In the same order, the values of `Cn1cnc(C(=O)N(Cc2ccc(F)c(-c3cccc(CCC#N)c3)c2)C2CCOCC2)c1` [Compound 101] are below 0.1 µM and 0.0411 µM.
With `Cn1cnc(C(=O)N(Cc2ccc(F)c(Br)c2)C2CCOCC2)c1` [Compound 102], the IC50 is below 0.1 µM. The 50% inhibitory concentration (IC50) (15 min, room temperature) was determined as 0.0038 µM.
On the same counts, the results for `Cn1cnc(C(=O)N(Cc2ccc(F)c(-c3ccc(C(F)(F)F)cc3)c2)C2CCOCC2)c1` [Compound 104] are below 0.1 µM and 0.0272 µM.
On to `Cc1ccc(-c2cc(CN(C(=O)c3cn(C)cn3)C3CCOCC3)ccc2F)cc1` [Compound 105], for which the IC50 is below 0.1 µM. Also, the IC50 (15 min, room temperature) is 0.0162 µM.
On the same counts, the results for `COC(=O)C(Cc1cccc(OC(F)(F)F)c1)N(C(=O)c1cn(C)cn1)C1CCOCC1` (stereo not shown) [Compound 107] are below 0.1 µM and 0.03 µM.
Take `Cn1cnc(C(=O)N(C2CCOCC2)C(c2ccccc2)c2ccccc2)c1` [Compound 108]: the IC50 was at least 1 µM.
The same measure, in the same setting: next, `CC1CC(N(Cc2ccc(F)c(Br)c2)C(=O)c2cn(C)cn2)CC(C)O1` (stereo not shown) [Compound 111]: at least 1 µM.
On to `Cn1cnc(C(=O)N(Cc2ccc(F)c(-c3ccc(OC(F)(F)F)cc3)c2)C2CCSCC2)c1` [Compound 112], for which the IC50 is below 0.1 µM. Further, under “15 min, room temperature”, the IC50 is 0.0203 µM.
Regarding `Cn1cnc(C(=O)N(Cc2cccc(C(F)(F)F)c2)C2CCSCC2)c1` [Compound 113], the IC50 is below 0.1 µM. For the same molecule, under “15 min, room temperature”, the IC50 came to 0.0071 µM.
On the same counts, the results for `Cn1cnc(C(=O)N(Cc2ccc(F)c(-c3ccc(F)cc3)c2)C2CCSCC2)c1` [Compound 114] are below 0.1 µM and 0.0164 µM.
For `Cn1cnc(C(=O)N(Cc2cccc(C(F)(F)F)c2)C2CCS(=O)(=O)CC2)c1` [Compound 117], the IC50 is at least 1 µM.
For the molecule `Cc1cc(CN(C(=O)c2cn(C)cn2)C2CCSCC2)cc(OC(F)(F)F)c1` [Compound 118], the IC50 is below 0.1 µM. The IC50 (15 min, room temperature) was 0.0113 µM.

By IC50 is commonly meant the concentration needed to halve the response being measured.
